# Test results published in patent US7507421B2, “Hydroxycitric acid salt composition and method of making” (Unibar Corporation, priority 2002, dated 2009).
# Experiments:
# [1] = Accelerated storage study of aqueous solution; assay type: physicochemical; conditions: 5 g in 100 ml de-ionized sterile water, accelerated storage study chamber, 2 months
# Protocol: 50 g equivalent of the hydroxy citric acid—potassium salt solution from Example 2 was taken into a glass beaker fitted with a stirring arrangement. To this solution, 43 g of the dried calcium salt from Example 1 was added and the mixture was stirred to yield a clear solution. The resultant solution was spray dried to yield a salt of hydroxycitric acid with the following analysis: potassium content 11% to 18%, calcium content 5% to 12%, structural moisture 3% to 5% and hydroxycitric acid content 70% to 76%. The sodium content was less than 0.5% and lactone less than 0.5%. The combined salt has a solubility of 5 g in 100 mL of deionized water at room temperature. This salt composition is tasteless and white in color. A solution of 5 g in 100 ml of de-ionized sterile water was subjected to an accelerated storage study chamber for 2 months.
# [2] = test system: adult female Wistar rats; assay: Acute Oral Toxicity (OECD Test Guideline 425), LD50; assay type: in vivo; set-up: key to Short-term Result / Long-term Result: X = Died; ◯ = Survived; conditions: for LD50: oral, female Wistar rats
# Protocol: A representative lot of powder obtained as described above is a pure, stable calcium potassium salt of hydroxycitric acid having a proximate analysis of 70 to 75% hydroxycitric acid, 7.5% to 9.5% calcium, 12 to 15% potassium and 3 to 5% structural moisture. The sodium content is less than 0.5%, and HCA lactone content is less than 0.5%. An animal toxicity study was conducted on the product to establish its LD50.
# Doses were selected in accordance with the Acute Oral Toxicity (OECD Test Guideline 425) Statistical Program as follows: 175, 550, 1750, 5000 mg/kg of body weight in adult female Wistar rats.
# [3] = Solubility in water; assay type: physicochemical; conditions: deionized water at room temperature
# Protocol: The resultant solution was spray dried to yield a salt of hydroxycitric acid with the following analysis: potassium content 11% to 18%, calcium content 5% to 12%, structural moisture 3% to 5% and hydroxycitric acid content 70% to 76%. The sodium content was less than 0.5% and lactone less than 0.5%. […] This salt composition is tasteless and white in color. A solution of 5 g in 100 ml of de-ionized sterile water was subjected to an accelerated storage study chamber for 2 months.
# [4] = test system: adult female Wistar rats; assay: Acute Oral Toxicity (OECD Test Guideline 425), LD50; assay type: in vivo; set-up: key: X = Died; ◯ = Survived; conditions: dose 2000 mg/kg, single animal
# [5] = dose 5000 mg/kg, one line per animal
substance,measurement,setting,value
Combined Potassium-Calcium Salts of Hydroxycitric Acid [Example 3],clarity of solution after storage,[1],retained its clarity
same,precipitation of salt after storage of solution,[1],did not precipitate out
same,"Died (long-term, number of animals)","[2]; All Doses, total 6",0
same,"Survived (long-term, number of animals)","[2]; All Doses, total 6",6
same,Long-term Result,"[2]; dose 175 mg/kg, single animal",◯
same,Short-term Result,"[2]; dose 175 mg/kg, single animal",◯
same,"Died (long-term, number of animals)","[2]; dose 175 mg/kg, total 1",0
same,"Survived (long-term, number of animals)","[2]; dose 175 mg/kg, total 1",1
same,Long-term Result,"[2]; dose 550 mg/kg, single animal",◯
same,Short-term Result,"[2]; dose 550 mg/kg, single animal",◯
same,"Died (long-term, number of animals)","[2]; dose 550 mg/kg, total 1",0
same,"Survived (long-term, number of animals)","[2]; dose 550 mg/kg, total 1",1
same,"Died (long-term, number of animals)","[2]; dose 2000 mg/kg, total 1",0
same,"Survived (long-term, number of animals)","[2]; dose 2000 mg/kg, total 1",1
same,Long-term Result,[2]; [5],◯
same,Short-term Result,[2]; [5],◯
same,"Died (long-term, number of animals)","[2]; dose 5000 mg/kg, total 3",0
same,"Survived (long-term, number of animals)","[2]; dose 5000 mg/kg, total 3",3
same,LD50,[2],more than 5 gm/kg
same,LD50,[2]; conclusion of Table 8,Conclusion: LD50 of a sample of the Test Compound was found to be greater than 5000 mg/kg.
same,solubility,[3],5 g in 100 mL
same,Long-term Result,[4],◯
same,Short-term Result,[4],◯
